Test results: patent US12023378B2, “Covalently linked antigen-antibody conjugates” (Hoffmann-La Roche Inc., priority 2012, dated 2024)

Legend:
[1] = Dig-peptide serum kinetic: Western blot detection of digoxigenylated polypeptide in serum; assay type: in vivo, mouse
Experimental: (§1) Serum samples were stored at −80° C.
The determination of the amount of digoxigenylated peptide in the serum at the given time points was difficult compared to the detection of Dig-Cy5 as no direct means to detect the polypeptide in serum samples was available. Therefore, a Western-Blot related assay to detect digoxigenylated peptide in serum was established. In a first step, the serum samples were separated on reducing SDS-PAGE. Because sample preparation included exposure of the serum to high concentrations of SDS and reducing agents, complexed Dig-polypeptide conjugates can become released from the (completely denatured/unfolded) anti-digoxigenin antibody, whereas covalently conjugates remained bound. To mediate the release of the polypeptide from the non-covalent antibody complex and separate the individual components by SDS-PAGE, 2 μl of each serum sample was diluted in 18 μl 20 mM histidine/140 mM NaCl pH 6.0, mixed with 6.7 μl of 4×LDS sample buffer and 3 μl of 10× sample reducing agent (NuPAGE, Invitrogen) for 5 min at 95° C. As a control, 2 μl of serum of an untreated mouse of the same strain was used. […] Digoxigenylated polypeptides were subsequently detected on the membrane with an anti-digoxigenin antibody. […] Chemiluminescence was detected with the Lumilmager F1 (Roche) with an exposure time of 20 min.

[2] = mouse, in vivo
Excerpt: The control group was not pre-injected with the anti-biotin antibody.

[3] = mouse, in vivo; remark: listed apart in the source
Experimental: The objective of the described peptide modification technology is to improve the therapeutic applicability of peptides. Major bottlenecks for therapeutic application of peptides are currently limited stability in vivo and/or short serum half-life and fast clearance. The PK parameters of antibody conjugates of fluorophores were determined in vivo and compare with the PK of non-covalent antibody-fluorophore complexes. Therefore, (i) the anti-biotin antibody VH53C was covalently conjugated to the biotinylated fluorophore Biot-Cys-Cy5, (ii) a non-covalent complex of the anti-biotin antibody with biotinylated fluorophore Biot-Cy5 was generated, (iii) the covalently conjugated and the non-covalently complexed compounds were applied to animals and (iv) the serum concentrations of the compounds over time in these animals was measured by determination of the fluorescence of Cy5 (A650), and that of the corresponding antibody by an ELISA method that specifically detects the humanized antibody.
as §1

Row | relative Cy5-mediated fluorescence in serum [3] | Compound | presence of digoxigenylated polypeptide in serum (Western blot signal) ([1]; 32.1 nmol, 0.08 h to 24 h after administration, FIG. 35) | half-life / persistence in the serum of mice ([1]; Western blot, up to 24 hrs.) | serum half-life and exposure levels [2]
1 |  | CC[C@H](C)[C@H](NC(C)=O)C(=O)N[C@@H](CCCCNC(=O)CCOCCOCCOCCNC(=O)CO[C@H]1CC[C@@]2(C)[C@H](CC[C@@H]3[C@@H]2C[C@@H](O)[C@]2(C)[C@@H](C4=CC(=O)OC4)CC[C@]32O)C1)C(=O)N1CCN(c2ccc3ncn(CC(=O)N[C@@H](CCCNC(=N)N)C(=O)N[C@@H](Cc4c[nH]cn4)C(=O)N[C@@H](Cc4ccc(O)cc4)C(=O)N[C@@H](CC(C)C)C(=O)N[C@@H](CC(N)=O)C(=O)N[C@@H](Cc4c[nH]c5ccccc45)C(=O)N[C@H](C(=O)N[C@H](C(=O)N[C@@H](CCCNC(=N)N)C(=O)N[C@@H](CCC(N)=O)C(=O)N(C)[C@@H](CCCNC(=N)N)C(=O)N[C@@H](Cc4ccc(O)cc4)C(N)=O)[C@@H](C)O)C(C)C)c(=O)c3c2)CC1 [non-complexed polypeptide] | barely any signal associable to the small polypeptide was detectable even at the earliest time point | very short half-life | 
2 | not detectable | Biotin-O2Oc-Ser-O2Oc-DADOO-Cy5 [Biotin-Ser-Cy5] |  |  | low serum half-life and low exposure levels
